We go through 1 sequence from PMC9254439 (Virologica Sinica, 2022).

Where no end group is shown, it is not given here.

The target of test [1] is SARS-CoV-2 spike trimer protein (Severe acute respiratory syndrome coronavirus 2, UniProt P0DTC2). As to the kind of experiment: biochemical. It counts as binding.
Test [2] deals with SARS-CoV-2 spike monomer protein (Severe acute respiratory syndrome coronavirus 2, UniProt P0DTC2). As to the kind of experiment: biochemical. It counts as binding.

NFWISPKLAFALGGGS [Spep-1]: the Kd (commonly the constant that tells how readily two partners part at equilibrium) in test [1] is 1.7 nM; in test [2], 2.14 nM.
